Reference: US7238507B2, “Aspergillus ochraceus 11 alpha hydroxylase and oxidoreductase” (priority 2000, dated 2007)

Key:
[1] = test system: Aspergillus ochraceus 11 alpha hydroxylase; test: HPLC assay of conversion of androstenedione to 11α-hydroxyandrostenedione by subcellular fractions of baculovirus-infected Sf9 cells co-expressing 11 alpha hydroxylase and human oxidoreductase; assay type: biochemical; settings: 11 alpha hydroxylase co-expressed in Sf-9 insect cells with human oxidoreductase
Procedure: Microsomal and mitochondrial subcellular fractions were prepared from insect cells co-infected with recombinant baculoviruses expressing recombinant Aspergillus ochraceus 11 alpha hydroxylase and human oxidoreductase cloned from HepG2 cell RNA. The subcellular fractions were incubated with 250 μM androstenedione (AD) in the presence of an NADPH-generating system for 120 minutes, and the resulting products were separated by HPLC and monitored by ultraviolet detection at 247 nm. Hydroxlase activity was found in the microsomal fraction, as expected, but also appeared in the mitochondrial fraction. […] Panel A illustrates a reaction carried out using enzyme prepared from a mitochondrial fraction. The peak in panel A that elutes after AD appears to be testosterone. When a microsomal fraction was used, almost as much AD was converted to 11 alpha hydroxy AD, but relatively more testosterone was also produced. Panel B illustrates the same reaction carried out for 120 minutes without a source of enzyme. Panel C illustrates an HPLC tracing with 11α-hydroxyandrostenedione standard added to incubation buffer.
Sf9 cells were co-infected with virus particles that contained the steroid 11 alpha hydroxylase cDNA and a separate virus containing a human NADPH P450-oxidoreductase. Both viruses were added at a multiplicity of infection (MOI) ratio of 0.1:0.01 (11 aOH to oxr). […]

[2] = test system: Aspergillus ochraceus spores; test: 11 α-hydroxylation of canrenone by A. ochraceus spores, media extract analysed by HPLC; assay type: cell-based; settings: spores incubated approximately 26 hours at 30° C. with 0.1 g canrenone in 400 ml; data not shown
Procedure: Aspergillus ochraceus ATCC 18500 stock culture (50 ul) was grown for 3-4 days on plates containing sporulation medium: 50 g/L molasses, 5 g/L cornsteep liquid, 5 g/L KH2PO4, 25 g/L NaCl, 25 g/L glucose, 20 g/L agar, and 0.4 g/L progesterone, pH 5.8. Progesterone was included in the media to induce the steroid 11 α-hydroxylase. Spores were scraped from the plates into 5 to 7 ml saline, washed in saline, collected by centrifugation, and suspended in saline containing 15% glycerol. The spores were frozen on dry ice and stored at −80° C. Approximately 0.8 g spores were incubated at 30° C. in a 1 liter flask containing 400 ml 1% glucose, 50 mM KH2PO4 and 0.1 g canrenone, pH 7.0. This treatment prior to spore disruption has three benefits: (1) to induce the steroid 11 α-hydroxylase by incubation with canrenone; (2) to determine whether the spores were catalyzing the 11 α-hydroxylation of canrenone; (3) and to soften the spore wall. After approximately 26 hours of incubating with shaking at 30° C. to provide better aeration, the spores were collected by centrifugation. […]
Approximately 160 ml of media from the spore induction was extracted three times with 70 ml ethyl acetate to collect the steroid substrate and products. […] The residue was dissolved in 8 ml methanol so that the final concentration of canrenone was approximately 15 mM (assuming quantitative recovery). […]

| SMILES | conversion of the steroid substrate to 11 alpha-hydroxy-AD as determined by HPLC analysis [1] | 11 α-hydroxylation of canrenone, HPLC of media extract monitored at 254 nm [2] |
| --- | --- | --- |
| C[C@]12CCC(=O)C=C1CC[C@@H]1[C@@H]2CC[C@]2(C)C(=O)CC[C@@H]12 [AD, Androst-4-ene-3,17-dione(8CI,9CI)] | successfully catalyzed the conversion |  |
| C[C@]12CCC(=O)C=C1C=C[C@@H]1C2CC[C@@]2(C)C1CC[C@@]21CCC(=O)O1 (stereo partly drawn) [canrenone, Pregna-4,6-diene-21-carboxylic acid,17-hydroxy-3-oxo-,γ-lactone, (17α)-(9CI)] |  | exhibited a component with the same retention time as the 11 α-hydroxy canrenone standard |
